In US8865734B2 (priority 2010, dated 2014):

Key:
[1] = tested on: M. tuberculosis inside the host macrophage; experiment: QIM: Quantification of Intracellular Mycobacteria (intracellular growth assay, phenotypic cell-based); conditions: Mycobacterium tuberculosis; MIC, 80% bacterial growth inhibition; intracellular growth; read-out: QIM
From the text: Accordingly, a phenotypic cell-based assay, suitable for high throughput screening, which allows for the search of compounds that would prevent M. tuberculosis multiplication inside the host macrophage was utilized (WO2010003533A2), overcoming many of the numerous and burdensome steps involved in previous methodologies (Arain et al., 1996).
A 120,000 small molecule compound library was screened using a validated phenotypic cell-based assay (WO2010003533A2). Active compounds from the primary screen were confirmed via dose response in the intracellular (QIM) assay and an in vitro (QUM) assay, wherein the abbreviation “QIM” stands for Quantification of Intracellular Mycobacteria and the abbreviation “QUM” stands for Quantification of in vitro grown Mycobacteria. […] The MIC is the minimum concentration of compound required to obtain 80% bacterial growth inhibition.
The imidazopyridine compounds (scaffolds Ia and Ib; see Table 1) underwent derivatization according to the methods outlined below (Schemes 1-13). Resulting derivatives were examined for inhibitory activity (MIC) using the assays described above (Example 1) and the results are summarized in Table 1.

[2] = tested on: in vitro grown Mycobacteria (M. tuberculosis); experiment: QUM: Quantification of in vitro grown Mycobacteria (in vitro growth fluorescence assay); assay type: cell-based; conditions: Mycobacterium tuberculosis; MIC, 80% bacterial growth inhibition; in vitro growth; read-out: QUM
Summary of the method: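 Mycobacterium tuberculosis grown in vitro was quantified by fluorescence across compound dose responses. MIC is defined as the minimum concentration producing 80% growth inhibition.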

| SMILES | MIC [1] | MIC [2] |
| --- | --- | --- |
| CCc1nc2ccc(C)cn2c1C(=O)NCc1ccc(C(C)(C)C)cc1 [Compound 64, N-(4-tert-Butylbenzyl)-2-ethyl-6-methylimidazo[1,2-a]pyridine-3-carboxamide] | < 1 µM | < 1 µM |
| CCc1nc2ccc(C)cn2c1C(=O)NCc1ccc(OC(F)(F)F)cc1 [Compound 65, 2-Ethyl-6-methyl-N-(4-(trifluoromethoxy)benzyl)imidazo[1,2-a]pyridine-3-carboxamide] | < 1 µM | < 1 µM |
| CCc1nc2ccc(C)cn2c1C(=O)NCc1ccc2c(ccn2C)c1 [Compound 66, 2-Ethyl-6-methyl-N-((1-methyl-1H-indol-5-yl)methyl)imidazo[1,2-a]pyridine-3-carboxamide] | < 1 µM | < 1 µM |
| CCc1nc2ccc(C)cn2c1C(=O)NCc1ccc2ccn(C)c2c1 [Compound 67, 2-Ethyl-6-methyl-N-((1-methyl-1H-indol-6-yl)methyl)imidazo[1,2-a]pyridine-3-carboxamide] | < 1 µM | < 1 µM |
| CCc1nc2ccc(Cl)cn2c1C(=O)NCc1ccc(Cl)cc1 [Compound 70, 6-Chloro-N-(4-chlorobenzyl)-2-ethylimidazo[1,2-a]pyridine-3-carboxamide] | < 1 µM | < 1 µM |
| CCc1nc2ccc(Cl)cn2c1C(=O)NCc1ccc(Oc2ccccc2)cc1 [Compound 71] | < 1 µM | < 1 µM |
| CCc1nc2ccc(Cl)cn2c1C(=O)NCc1ccc(OC(F)(F)F)cc1 [Compound 72] | < 1 µM | < 1 µM |
| CCc1nc2ccc(Cl)cn2c1C(=O)NCc1ccc(C(C)(C)C)cc1 [Compound 73] | < 1 µM | < 1 µM |
| CCc1nc2ccc(Cl)cn2c1C(=O)NCc1ccc(N2CCOCC2)cc1 [Compound 74] | < 1 µM | < 1 µM |
| CCc1nc2ccc(Cl)cn2c1C(=O)NCc1ccc(OC(C)C)cc1 [Compound 75] | < 1 µM | < 1 µM |
| CCc1nc2ccc(Cl)cn2c1C(=O)NCc1ccc(OCC(C)C)cc1 [Compound 76] | < 1 µM | < 1 µM |
| CCc1nc2ccc(Cl)cn2c1C(=O)NCc1ccc(N2CCCCC2)cc1 [Compound 79, 6-Chloro-2-ethyl-N-(4-(piperidin-1-yl)benzyl)imidazo[1,2-a]pyridine-3-carboxamide] | < 1 µM | < 1 µM |
| CCc1nc2ccc(Cl)cn2c1C(=O)NCc1ccc2ccccc2c1 [Compound 80, 6-Chloro-2-ethyl-N-(naphthalen-2-ylmethyl)imidazo[1,2-a]pyridine-3-carboxamide] | < 1 µM | < 1 µM |
| CCc1nc2ccc(Cl)cn2c1C(=O)NCc1ccc(-c2ccccc2Cl)cc1 [Compound 82, 6-Chloro-N-((2′-chlorobiphenyl-4-yl)methyl)-2-ethylimidazo[1,2-a]pyridine-3-carboxamide] | < 1 µM | < 1 µM |
| CCc1nc2ccc(Cl)cn2c1C(=O)NCc1ccc(-c2ccc(Cl)cc2)cc1 [Compound 83, 6-Chloro-N-((4′-chlorobiphenyl-4-yl)methyl)-2-ethylimidazo[1,2-a]pyridine-3-carboxamide] | < 1 µM | < 1 µM |
| CCc1nc2ccc(Cl)cn2c1C(=O)NCc1ccc(-c2ccccc2C)cc1 [Compound 84, 6-Chloro-2-ethyl-N-((2′-methylbiphenyl-4-yl)methyl)imidazo[1,2-a]pyridine-3-carboxamide] | < 1 µM | < 1 µM |
| CCc1nc2ccc(Cl)cn2c1C(=O)NCc1ccc(-c2cccc(C)c2)cc1 [Compound 85, 6-Chloro-2-ethyl-N-((3′-methylbiphenyl-4-yl)methyl)imidazo[1,2-a]pyridine-3-carboxamide] | < 1 µM | < 1 µM |
| CCc1nc2ccc(Cl)cn2c1C(=O)NCc1ccc(-c2ccc(C)cc2)cc1 [Compound 86, 6-Chloro-2-ethyl-N-((4′-methylbiphenyl-4-yl)methyl)imidazo[1,2-a]pyridine-3-carboxamide] | < 1 µM | < 1 µM |
